Measured values from US11046710B2, “Sulfonamide compounds” (DAIICHI SANKYO COMPANY, LIMITED, priority 2016, dated 2021).

These compounds were tested against human TNAP (Homo sapiens (Human), UniProt P05186) (assay: Inhibitory test of TNAP activity (pNPP substrate, p-nitrophenol production)). Details: human TNAP from transfected COS1 culture supernatant, 60 minutes at room temperature.
Assay type: biochemical
Method: COS1 cells (DS Pharma Biomedical Co., Ltd.) were transfected with human TNAP (OriGene Technologies, Inc.) using Lipofectamine LTX & Plus reagent (Invitrogen Corp.). On the next day, the medium was replaced with a fresh medium, and the cells were cultured in an incubator for 3 days. After 3 days, the culture supernatant was collected and concentrated by centrifugation at 5000 G for 30 minutes using Amicon 14, 10^4 cut (Merck Millipore). The concentrated culture supernatant was dialyzed against 5 L of 50 mM Tris/200 mM NaCl/1 mM MgCl2/20 μM ZnCl2 twice and used as an enzyme source (enzyme solution). The substrate pNPP (ProteoChem Inc.) was adjusted to 3.1 mM with Milli-Q water, and a solution of each test compound dissolved in dimethyl sulfoxide (DMSO; Wako Pure Chemical Industries, Ltd.) by 6 serial dilutions at a 5-fold common ratio from 100 μM, or DMSO was added thereto at a final concentration of 1% by volume. The enzyme solution adjusted to 2 μg/mL with an assay buffer (200 mM Tris/2 mM MgCl2/0.04 mM ZnCl2/0.01% Tween 20) was added in the same amount of the substrate solution and incubated at room temperature for 60 minutes. Then, the absorbance (ABS: 405 nm) was measured using a microplate reader (model plus 384, Molecular Devices, LLC), and the concentration of produced p-nitrophenol was calculated.

human TNAP, sequence (P05186 18-524): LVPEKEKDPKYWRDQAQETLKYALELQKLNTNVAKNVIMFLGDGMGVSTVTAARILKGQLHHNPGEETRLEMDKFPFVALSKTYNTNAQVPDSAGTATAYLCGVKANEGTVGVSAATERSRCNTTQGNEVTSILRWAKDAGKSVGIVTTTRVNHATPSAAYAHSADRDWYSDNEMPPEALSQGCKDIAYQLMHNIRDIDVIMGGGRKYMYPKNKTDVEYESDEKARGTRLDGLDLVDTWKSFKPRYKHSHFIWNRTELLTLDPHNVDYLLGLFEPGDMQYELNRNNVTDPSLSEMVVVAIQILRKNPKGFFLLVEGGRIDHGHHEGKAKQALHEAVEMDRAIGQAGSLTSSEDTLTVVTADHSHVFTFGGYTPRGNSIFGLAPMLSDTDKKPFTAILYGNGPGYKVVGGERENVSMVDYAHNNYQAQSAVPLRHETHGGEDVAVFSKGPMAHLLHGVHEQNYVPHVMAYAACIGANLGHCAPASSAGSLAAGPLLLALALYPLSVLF

Q: With `COc1ccc(Cl)cc1S(=O)(=O)Nc1cnc2c(c1)C(=O)N1C[C@@H](OC)C[C@@H]1CO2` [Example 46, 5-chloro-2-methoxy-N-[(8S,9aR)-8-methoxy-5-oxo-8,9,9a,10-tetrahydro-5H,7H-pyrido[3,2-f]pyrrolo[2,1-c][1,4]oxazepin-3-yl]benzenesulfonamide] as the compound, how does the IC50 read?
A: The IC50 was 0.5 nM.

Q: With `COc1ccc(Cl)cc1S(=O)(=O)Nc1cnc2c(c1)-n1nccc1CCO2` [Example 26, 5-chloro-N-(4,5-dihydropyrazolo[1,5-d]pyrido[2,3-b][1,4]oxazepin-9-yl)-2-methoxybenzenesulfonamide] as the compound, how does the IC50 read?
A: The IC50 was 29.4 nM.

Q: For `O=C1c2cc(NS(=O)(=O)c3cc(Cl)ccc3OC(F)(F)F)cnc2OC[C@H]2C[C@H](O)CN12` [Example 32, 5-chloro-N-[(8S,9aR)-8-hydroxy-5-oxo-8,9,9a,10-tetrahydro-5H,7H-pyrido[3,2-f]pyrrolo[2,1-c][1,4]oxazepin-3-yl]-2-(trifluoromethoxy)benzenesulfonamide], which IC50 is on record?
A: The IC50 was 0.9 nM.

Q: With `COc1ccc(Cl)cc1S(=O)(=O)Nc1cnc2c(c1)-c1ccnn1[C@@H](C)CO2` [Example 16, 5-chloro-2-methoxy-N-[(5S)-5-methyl-5,6-dihydropyrazolo[1,5-d]pyrido[3,2-f][1,4]oxazepin-10-yl]benzenesulfonamide] as the compound, how does the IC50 read?
A: The IC50 was 3.5 nM.

Q: Which IC50 does the source give for `COc1ncc(Cl)cc1S(=O)(=O)Nc1cnc2c(c1)-c1ccnn1[C@@H](C)CO2` [Example 21, 5-chloro-2-methoxy-N-[(5S)-5-methyl-5,6-dihydropyrazolo[1,5-d]pyrido[3,2-f][1,4]oxazepin-10-yl]pyridine-3-sulfonamide] here?
A: The IC50 was 3 nM.

Q: `COc1ccc(Cl)cc1S(=O)(=O)Nc1cnc2c(c1)C(=O)N1CCC[C@@H]1CO2` [Example 28, 5-chloro-2-methoxy-N-[(9aR)-5-oxo-8,9,9a,10-tetrahydro-5H,7H-pyrido[3,2-f]pyrrolo[2,1-c][1,4]oxazepin-3-yl]benzenesulfonamide] was tested. Which IC50 did it give?
A: The IC50 was 1.2 nM.

Q: `COc1ccc(Cl)cc1S(=O)(=O)Nc1cnc2c(c1)C(=O)N1CC[C@@H](O)[C@@H]1CO2` [Example 40, 5-chloro-N-[(9R,9aS)-9-hydroxy-5-oxo-8,9,9a,10-tetrahydro-5H,7H-pyrido[3,2-f]pyrrolo[2,1-c][1,4]oxazepin-3-yl]-2-methoxybenzenesulfonamide] was tested. Which IC50 did it give?
A: Its IC50 is 5.8 nM.

Q: For `COc1ccc(Cl)cc1S(=O)(=O)Nc1cnc2c(c1)CN1C(=O)CCC[C@H]1CO2` [Example 59, 5-chloro-2-methoxy-N-[(10aS)-7-oxo-7,8,9,10,10a, 11-hexahydro-5H-dipyrido[2,1-c:3′,2′-f][1,4]oxazepin-3-yl]benzenesulfonamide], which IC50 is on record?
A: Its IC50 is 1.4 nM.

Q: For `O=C1COCC2COc3ncc(NS(=O)(=O)c4cc(Cl)ccc4OC(F)(F)F)cc3CN12` (centres unmarked) [Example 63], which IC50 is on record?
A: Its IC50 is 1.4 nM.

Q: `COc1ncc(Cl)cc1S(=O)(=O)Nc1cnc2c(c1)-c1ccnn1[C@H](C)CO2` [Example 23, 5-chloro-2-methoxy-N-[(5R)-5-methyl-5,6-dihydropyrazolo[1,5-d]pyrido[3,2-f][1,4]oxazepin-10-yl]pyridine-3-sulfonamide] was tested. Which IC50 did it give?
A: Its IC50 is 5.7 nM.

Q: How did the IC50 turn out when `COc1ccc(Cl)cc1S(=O)(=O)Nc1cnc2c(c1)-c1nnc(C(C)C)n1CCO2` [Example 5, 5-chloro-2-methoxy-N-[3-(propan-2-yl)-5,6-dihydropyrido[3,2-f][1,2,4]triazolo[4,3-d][1,4]oxazepin-10-yl]benzenesulfonamide] was run?
A: Its IC50 is 2.8 nM.

Q: Which IC50 does the source give for `COc1ccc(Cl)cc1S(=O)(=O)Nc1cnc2c(c1)CN1C(=O)[C@H](O)C[C@H]1CO2` [Example 53, 5-chloro-N-[(8R,9aS)-8-hydroxy-7-oxo-8,9,9a,10-tetrahydro-5H,7H-pyrido[3,2-f]pyrrolo[2,1-c][1,4]oxazepin-3-yl]-2-methoxybenzenesulfonamide] here?
A: The IC50 was 4.3 nM.

Q: How did the IC50 turn out when `COCCOc1ccc(F)cc1S(=O)(=O)Nc1cnc2c(c1)-c1ccnn1CCO2` [Example 11, N-(5,6-dihydropyrazolo[1,5-d]pyrido[3,2-f][1,4]oxazepin-10-yl)-5-fluoro-2-(2-methoxyethoxy)benzenesulfonamide] was run?
A: Its IC50 is 12.6 nM.

Q: Which IC50 does the source give for `CCOc1ccc(F)cc1S(=O)(=O)Nc1cnc2c(c1)-c1ccnn1[C@@H](C)CO2` [Example 18, 2-ethoxy-5-fluoro-N-[(5S)-5-methyl-5,6-dihydropyrazolo[1,5-d]pyrido[3,2-f][1,4]oxazepin-10-yl]benzenesulfonamide] here?
A: The IC50 was 2.8 nM.

Q: For `O=C1c2cc(NS(=O)(=O)c3cc(Cl)ccc3OC(F)(F)F)cnc2OC[C@H]2[C@@H](O)CCN12` [Example 42, 5-chloro-N-[(9S,9aS)-9-hydroxy-5-oxo-8,9,9a,10-tetrahydro-5H,7H-pyrido[3,2-f]pyrrolo[2,1-c][1,4]oxazepin-3-yl]-2-(trifluoromethoxy)benzenesulfonamide], which IC50 is on record?
A: Its IC50 is 0.4 nM.

Q: With `COc1ccc(Cl)cc1S(=O)(=O)Nc1cnc2c(c1)-c1nccn1CCO2` [Example 6, 5-chloro-N-(5,6-dihydroimidazo[1,2-d]pyrido[3,2-f][1,4]oxazepin-10-yl)-2-methoxybenzenesulfonamide] as the compound, how does the IC50 read?
A: The IC50 was 5.9 nM.

Q: How did the IC50 turn out when `CCc1nnc2n1CCOc1ncc(NS(=O)(=O)c3cc(Cl)ccc3OC)cc1-2` [Example 3, 5-chloro-N-(3-ethyl-5,6-dihydropyrido[3,2-f][1,2,4]triazolo[4,3-d][1,4]oxazepin-10-yl)-2-methoxybenzenesulfonamide] was run?
A: The IC50 was 2.4 nM.

Q: Which IC50 does the source give for `COc1ccc(Cl)cc1S(=O)(=O)Nc1cnc2c(c1)C(=O)N1C[C@@H](O)C[C@@H]1CO2` [Example 30, 5-chloro-N-[(8S,9aR)-8-hydroxy-5-oxo-8,9,9a,10-tetrahydro-5H,7H-pyrido[3,2-f]pyrrolo[2,1-c][1,4]oxazepin-3-yl]-2-methoxybenzenesulfonamide] here?
A: Its IC50 is 0.9 nM.

Q: For `CNC(=O)O[C@H]1C[C@@H]2COc3ncc(NS(=O)(=O)c4cc(Cl)ccc4OC)cc3C(=O)N2C1` [Example 48, (8S,9aR)-3-{[(5-chloro-2-methoxyphenyl)sulfonyl]amino}-5-oxo-8,9,9a,10-tetrahydro-5H, 7H-pyrido[3,2-f]pyrrolo[2,1-c][1,4]oxazepin-8-yl methylcarbamate], which IC50 is on record?
A: Its IC50 is 0.6 nM.

Q: `COc1ccc(Cl)cc1S(=O)(=O)Nc1cnc2c(c1)C(=O)N1CCC[C@H]1CO2` [Example 27, 5-chloro-2-methoxy-N-[(9aS)-5-oxo-8,9,9a,10-tetrahydro-5H,7H-pyrido[3,2-f]pyrrolo[2,1-c][1,4]oxazepin-3-yl]benzenesulfonamide] was tested. Which IC50 did it give?
A: The IC50 was 13.2 nM.

Q: For `CCOc1ncc(F)cc1S(=O)(=O)Nc1cnc2c(c1)-c1ccnn1CCO2` [Example 14, N-(5,6-dihydropyrazolo[1,5-d]pyrido[3,2-f][1,4]oxazepin-10-yl)-2-ethoxy-5-fluoropyridine-3-sulfonamide], which IC50 is on record?
A: The IC50 was 3.6 nM.

Q: Which IC50 does the source give for `CCOc1ccc(F)cc1S(=O)(=O)Nc1cnc2c(c1)-c1ccnn1[C@H](C)CO2` [Example 20, 2-ethoxy-5-fluoro-N-[(5R)-5-methyl-5,6-dihydropyrazolo[1,5-d]pyrido[3,2-f][1,4]oxazepin-10-yl]benzenesulfonamide] here?
A: Its IC50 is 4.2 nM.

Q: With `COC(=O)N[C@@H]1C[C@@H]2COc3ncc(NS(=O)(=O)c4cc(Cl)ccc4OC)cc3C(=O)N2C1` [Example 50, methyl [(8R,9aR)-3-{[(5-chloro-2-methoxyphenyl)sulfonyl]amino}-5-oxo-8,9,9a,10-tetrahydro-5H, 7H-pyrido[3,2-f]pyrrolo[2,1-c][1,4]oxazepin-8-yl]carbamate] as the compound, how does the IC50 read?
A: The IC50 was 0.5 nM.

Q: `COc1ccc(Cl)cc1S(=O)(=O)Nc1cnc2c(c1)C(=O)N1CC[C@H](O)[C@@H]1CO2` [Example 41, 5-chloro-N-[(9S,9aS)-9-hydroxy-5-oxo-8,9,9a,10-tetrahydro-5H,7H-pyrido[3,2-f]pyrrolo[2,1-c][1,4]oxazepin-3-yl]-2-methoxybenzenesulfonamide] was tested. Which IC50 did it give?
A: The IC50 was 0.4 nM.

Q: With `COc1ccc(Cl)cc1S(=O)(=O)Nc1cnc2c(c1)CN1C(=O)CN(C)C[C@H]1CO2` [Example 64, 5-chloro-2-methoxy-N-[(10aS)-9-methyl-7-oxo-7,8,9,10,10a, 11-hexahydro-5H-pyrazino[2,1-c]pyrido[3,2-f][1,4]oxazepin-3-yl]benzenesulfonamide] as the compound, how does the IC50 read?
A: The IC50 was 1.8 nM.

Q: For `COc1ncc(Cl)cc1S(=O)(=O)Nc1cnc2c(c1)-c1ccnn1CCO2` [Example 12, 5-chloro-N-(5,6-dihydropyrazolo[1,5-d]pyrido[3,2-f][1,4]oxazepin-10-yl)-2-methoxypyridine-3-sulfonamide], which IC50 is on record?
A: The IC50 was 8.5 nM.

Q: Which IC50 does the source give for `COc1ccc(Cl)cc1S(=O)(=O)Nc1cnc2c(c1)CN1C(=O)COC[C@H]1CO2` [Example 60, 5-chloro-2-methoxy-N-[(10aS)-7-oxo-7,8,10a,11-tetrahydro-5H,10H-[1,4]oxazino[3,4-c]pyrido[3,2-f][1,4]oxazepin-3-yl]benzenesulfonamide] here?
A: The IC50 was 3.3 nM.

Q: Which IC50 does the source give for `CCOc1ncc(Cl)cc1S(=O)(=O)Nc1cnc2c(c1)-c1ccnn1CCO2` [Example 13, 5-chloro-N-(5,6-dihydropyrazolo[1,5-d]pyrido[3,2-f][1,4]oxazepin-10-yl)-2-ethoxypyridine-3-sulfonamide] here?
A: The IC50 was 5.1 nM.

Q: How did the IC50 turn out when `O=C1c2cc(NS(=O)(=O)c3cc(Cl)ccc3OC(F)(F)F)cnc2OC[C@H]2C[C@@H](O)CN12` [Example 37, 5-chloro-N-[(8R,9aR)-8-hydroxy-5-oxo-8,9,9a,10-tetrahydro-5H,7H-pyrido[3,2-f]pyrrolo[2,1-c][1,4]oxazepin-3-yl]-2-(trifluoromethoxy)benzenesulfonamide] was run?
A: The IC50 was 1.4 nM.
